Data as given in patent US8158621B2, “Methods of treating or preventing autoimmune diseases with 2,4-pyrimidinediamine compounds” (Rigel Pharmaceuticals, Inc., priority 2002, dated 2012).

Legend:
[1] = tested on: cultured human mast cells (CHMC); test: CHMC low cell density IgE activation: tryptase assay; format: cell-based
Summary of the method: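 Cultured human mast cells (1000-1500 cells/well, donor-dependent) equilibrated 1 hr at 37° C, then stimulated with anti-IgE for 30 min at 37° C. Tryptase released into the supernatant is measured with a fluorogenic tryptase substrate after 30 min at room temperature.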

[2] = tested on: cultured human mast cells (CHMC); test: CHMC low cell density ionomycin activation: tryptase assay; format: cell-based
[3] = tested on: cultured human mast cells (CHMC); test: CHMC high cell density IgE activation: hexos; format: cell-based
Method: (§1) After sensitizing, cells are counted, pelleted (1000 rpm, 5-10 minutes), and resuspended at 1-2 ×10^6 cells/ml in MT buffer. Add 100 ul of cell suspension to each well and 100 ul of compound dilutions. The final vehicle concentration is 0.5% DMSO. Incubate at 37° C. (5% CO2) for 1 hour. After 1 hour of compound treatment, stimulate cells with 6× anti-IgE. Mix wells with the cells and allow plates to incubate at 37° C. (5% CO2) for one hour. After 1 hour incubation, pellet cells (10 minutes, 1000 RPM) and collect 200 ul per well of the supernatant, being careful not to disturb pellet. Place the supernatant plate on ice. During the 7-hour step (see next) perform tryptase assay on supernatant that had been diluted 1:500. Resuspend cell pellet in 240 ul of CM media containing 0.5% DMSO and corresponding concentration of compound. Incubate CHMC cells for 7 hours at 37° C. (5% CO2). After incubation, pellet cells (1000 RPM, 10 minutes) and collect 225 ul per well and place in −80° C. until ready to perform ELISAS. ELISAS are performed on appropriately diluted samples (determined empirically for each donor cell population so that the sample measurement falls within the standard curve) following the supplier's instructions.
(§2) Add 50 uL of BMMC cell supernatant (see above) to the hexoseaminidase substrate, place at 37° C. for 30 minutes and read the plate at 5, 10, 15, and 30 minutes on a spectrophotometer.

[4] = tested on: cultured human mast cells (CHMC); test: CHMC high cell density IgE activation: tryptase; format: cell-based
Method: as §1

[5] = tested on: cultured human mast cells (CHMC); test: CHMC high cell density IgE activation: TNFalpha; format: cell-based; conditions: read-out: CHMC high density TNF-alpha
Method: as §1

[6] = tested on: cultured human mast cells (CHMC); test: CHMC high cell density IgE activation: IL-13; format: cell-based
Method: as §1

[7] = tested on: Human Jurkat T-cells (clone N); test: Jurkat T-cell activation (anti-TCR, CD69 upregulation); format: cell-based
Summary of the method: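 Jurkat cells in RPMI + 5% FBS preincubated with compound 1 h at 37 °C, then stimulated with anti-TCR C305 at 500 ng/ml for 20 h. CD69 surface expression stained with anti-CD69-APC and read by flow cytometry; IC50 versus solvent-only control.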

[8] = tested on: cultured human mast cells (CHMC); test: CHMC high cell density IgE activation: histamine; format: cell-based
Method: as §1

[9] = tested on: cultured human mast cells (CHMC); test: CHMC high cell density IgE activation: LTC4; format: cell-based
Method: as §1

[10] = tested on: cultured human mast cells (CHMC); test: CHMC low cell density IgE activation: LTC4 assay; format: cell-based; conditions: anti-IgE activation, LTC4 release
Method: Pellet CHMC cells (980 rpm, 10 min) and resuspend in pre-warmed MT. Add 65 ul of cells to each 96-well plate. Depending on the degranulation activity for each particular CHMC donor, load 1000-1500 cells/well. Mix four times followed by a 1 hr incubation at 37° C. […] Stimulate cells by adding 25 ul of 6× anti-IgE solution to the appropriate plates. Add 25 ul MT to un-stimulated control wells. Mix twice following addition of the anti-IgE. Incubate at 37° C. for 30 minutes. […] Spin plates at 1000 rpm for 10 min to pellet cells. Transfer 25 ul of supernatant to a 96-well black bottom plate and add 100 ul of freshly diluted tryptase substrate solution to each well. Incubate plates at room temperature for 30 min.
Leukotriene C4 (LTC4) is also quantified using an ELISA kit on appropriately diluted supernatant samples (determined empirically for each donor cell population so that the sample measurement falls within the standard curve) following the supplier's instructions.

Primary T-cells = test: Primary T-cell cytokine production (αCD3/αCD28): IL-2; format: cell-based, human; conditions: read-out: 1° T-Cell IL2 IC50
Method: 2E8-4E8 PBMC or proliferating T cells grown in rIL-2 from healthy human donors were suspended in PBS were spun down (1500 rpm, 8-10 minutes) and resuspended in 100 ml RPMI Complete media (1% Pen-Strep, 1% L-Glutamine, 10 mM HEPES). The cells were plated in T175 flasks (37° C., 5% CO2) and monocytes were allowed to adhere for 2-3 hours. After monocyte attachment, non-adherent cells were harvested, counted by hemocytometer, washed several times with PBS then resuspended in Yssels Complete Media (Modified IMDM Media with 1% Human AB Serum, 1% Pen-Strep, 1% L-Glutamine, 10 mM HEPES) at […]. 90 uL of the cell dilution were then added to compounds diluted to 2× in Yssel's media and incubated for 30 minutes at 37° C. (5% CO2). After this preincubation step the compound/cell mixture was transferred to stimulation plates, as described below.
Stimulation plates were prepared by coating 96 well plates with 5 μg/ml αCD3 (BD PharMingen, Catalog #555336)+10 μg/ml αCD28 (Beckman Coulter, Catalog #IM1376) in PBS (no Ca^2+/Mg^2+) at 37° C. (5% CO2) for at 3-5 hours. After incubation with the stimulation antibodies, the cocktail was removed and the plates washed 3 times with PBS prior to addition of the primary T cell/compound mixture.
The compound/cell mixture was transferred to the stimulation plates and incubated for 18 hr at 37° C. (5% CO2). After the cell stimulation, ˜150 μl supernatant were transferred from each well into 96-well filter plates (Coming PVDF Filter Plates) spun down (2000 rpm, 2-3 minutes) and either used immediately for ELISA or LUMINEX measurements or frozen down at −80° C. for future use.
IL-2 ELISAs were performed using the Quantikine Human IL-2 ELISA kit (R&D Systems, Catalog # D2050) as described by the manufacturer and absorption was measured on a spectrophotometer at 450 nm wavelength. Blank values were substracted and absorbances were converted to pg/mL based on the standard curve.
Luminex immunoassay multiplexing for TNF, IL-2, GMSCF, IL-4 and IFNg was performed essentially as described by the manufacturer (Upstate Biotechnology). Essentially 50 uL of sample was diluted into 50 uL assay diluent and 50 uL incubation buffer, then incubated with 100 uL of the diluted detection antibody for 1 hr at RT in the dark. The filter plate was washed 2× in Wash Buffer, then incubated with 100 uL of the diluted secondary reagent (SAV-RPE) for 30 min at RT in the dark. Finally the plates were washed 3 times and bead identification and RPE fluorescent measured by the Luminex instrument.
Varied concentrations of compound were compared to solvent only to determine the inhibition of T-cell activation IC50 of each compound.

[11] = tested on: bone marrow derived mast cells (BMMC); test: BMMC high cell density IgE activation: hexosaminidase; format: cell-based, mouse; conditions: high cell density; read-out: BMMC anti-IgE Hexos.
Method: (§3) After sensitizing, cells are counted, pelleted (1000 rpm, 5-10 minutes), and resuspended at 1-3×10^6 cells/ml in MT buffer. Add 100 ul of cell suspension to each well and 100 ul of compound dilutions. The final vehicle concentration is 0.5% DMSO. Incubate at 37° C. (5% CO2) for 1 hour. After 1 hour of compound treatment, stimulate cells with 6× stimulus (60 ng/ml DNP-BSA). Mix wells with the cells and allow plates to incubate at 37° C. (5% CO2) for one hour. After 1 hour incubation, pellet cells (10 minutes, 1000 RPM) and collect 200 ul per well of the supernatant, being careful not to disturb pellet, and transfer to a clean tube or 96-well plate. Place the supernatant plate on ice. During the 4-5 hour step (see next) perform the hexosiminidase assay. Resuspend cell pellet in 240 ul WEI-conditioned media containing 0.5% DMSO and corresponding concentration of compound. Incubate BMMC cells for 4-5 hours at 37° C. (5% CO2). After incubation, pellet cells (1000 RPM, 10 minutes) and collect 225 ul per well and place in −80° C. until ready to perform ELISAS. ELISAS are performed on appropriately diluted samples (determined empirically for each donor cell population so that the sample measurement falls within the standard curve) following the supplier's instructions.
as §2

[12] = tested on: bone marrow derived mast cells (BMMC); test: BMMC high cell density IgE activation: TNFalpha; format: cell-based, mouse; conditions: high cell density; read-out: BMMC anti-IgE TNF-alpha
Method: as §3

[13] = tested on: bone marrow derived mast cells (BMMC); test: BMMC high cell density IgE activation: IL-6; format: cell-based, mouse; conditions: high cell density; read-out: BMMC anti-IgE IL-6
Method: as §3

Syk kinase = target: T1, Syk kinase (Homo sapiens, UniProt P43405); test: Syk kinase biochemical fluorescence polarization assay; conditions: isolated Syk kinase, fluorescence polarization, 4 uM ATP
T1 construct: purchased Upstate, Lake Placid NY

[14] = Low Density CHMC, anti-IgE activation, tryptase release, read-out: CHMC anti-IgE Tryptase IC50
[15] = Low Density CHMC, ionomycin activation, tryptase release, read-out: CHMC Ionomycin Tryptase IC50
[16] = low cell density, read-out: CHMC Ionomycin Tryptase

Row | IC50 [1, 14] | IC50 [2, 15] | IC50 [3] | IC50 [4] | IC50 [5] | IC50 [6] | IC50 [7] | IC50 [8] | IC50 [9] | IC50 [10] | IC50 (Primary T-cells) | IC50 ([1]; low cell density, read-out: CHMC anti-IgE Tryptase) | IC50 [2, 16] | IC50 [11] | IC50 [12] | IC50 [13] | IC50 (Syk kinase) | IC50 ([2]; Low Density, read-out: CHMC Ionomycin Tryptase) | SMILES
1 | 228 nM | > 10000 nM | > 10000 nM | > 10000 nM | > 10000 nM | 6440 nM | 6540 nM | – | – | – | – | – | – | – | – | – | – | – | COC(=O)c1cc2cc(Nc3ncc(F)c(Nc4cccc(O)c4)n3)ccc2o1 [Compound R926614]
2 | 571 nM | > 10000 nM | 429 nM | 533 nM | 622 nM | – | 4390 nM | 809 nM | 414 nM | – | – | – | – | – | – | – | – | – | CNC(=O)c1cc2cc(Nc3ncc(F)c(Nc4ccc5c(c4)OCCO5)n3)ccc2o1 [Compound R926496]
3 | 263 nM | > 10000 nM | 1010 nM | 1260 nM | > 10000 nM | – | 2650 nM | 641 nM | 494 nM | 533 nM | – | – | – | – | – | – | – | – | CC(C)Oc1ccc(Nc2nc(Nc3ccc4oc(CO)cc4c3)ncc2F)cc1 [Compound R926705]
4 | – | – | – | – | – | – | 1480 nM | – | – | – | 1500 nM | – | – | – | – | – | – | – | CNC(=O)COc1cccc(Nc2ncc(F)c(Nc3ccc4cc[nH]c4c3)n2)c1 [Compound R926745]
5 | – | – | – | – | – | – | > 10000 nM | – | – | – | 36100 nM | – | – | – | – | – | – | – | Oc1cccc(Nc2nc(Nc3ccc(OCc4nc(-c5ccccc5)no4)cc3)ncc2F)c1 [Compound R935134]
6 | – | – | – | – | – | – | > 10000 nM | – | – | – | 13300 nM | – | – | – | – | – | – | – | Cc1noc(COc2ccc(Nc3nc(Nc4ccc(OC(C)C)cc4)ncc3F)cc2)n1 [Compound R935144]
7 | – | – | – | – | – | – | 390 nM | – | – | – | – | 47 nM | 2200 nM | 60 nM | 70 nM | 100 nM | 69 nM | – | COc1c(C)cc(Nc2ncc(F)c(Nc3ccc4c(c3)NC(=O)C(C)(C)O4)n2)cc1Cl [Compound R940361]
8 | – | – | – | – | – | – | > 10000 nM | – | – | – | – | – | > 10000 nM | 2440 nM | 1470 nM | 520 nM | 450 nM | – | Cn1ncc2ccc(Nc3ncc(F)c(Nc4ccc(Cl)c(Cl)c4)n3)cc21 [Compound R935393]
9 | 564 nM | > 10000 nM | > 2000 nM | > 10000 nM | > 10000 nM | – | 9270 nM | > 10000 nM | > 10000 nM | – | – | – | – | – | – | – | – | – | COC(=O)c1cc2cc(Nc3ncc(F)c(Nc4ccc(OC(C)C)cc4)n3)ccc2o1 [Compound R926704]
10 | 313 nM | > 10000 nM | 640 nM | > 2000 nM | > 10000 nM | – | 12500 nM | > 10000 nM | 326 nM | 78 nM | – | – | – | – | – | – | – | – | CNC(=O)c1cc2cc(Nc3ncc(F)c(Nc4ccc(C(C)(C)C)cc4)n3)ccc2o1 [Compound R926494]
11 | – | – | > 2000 nM | > 2000 nM | > 2000 nM | > 10000 nM | 1880 nM | > 10000 nM | – | – | – | – | – | – | – | – | – | > 10000 nM | Cc1cc(Nc2nc(Nc3cccc(OCCN4CCNCC4)c3)ncc2F)cc(C)c1O [Compound R945142]
12 | 70 nM | 2410 nM | > 2000 nM | > 10000 nM | > 10000 nM | – | > 10000 nM | > 10000 nM | 1490 nM | 78 nM | – | – | – | – | – | – | – | – | COC(=O)C1Cc2cc(Nc3ncc(F)c(Nc4ccc(OC(C)C)cc4)n3)ccc2O1 (stereo not shown) [Compound R926706]
